Structures can show the parent of a compound that is named as a salt.
How the values were obtained:
[1] = test system: CHIKV replicon; assay: microbe, parasite or virus in culture; format: cell-based, Chikungunya virus (CHIKV)
[2] = test system: SFV-Rluc

Molecule	CHIKV replicon % left [1]	SFV replication % left (surviving fraction, remaining percentage of SFV replication) [2]
Cc1ccc(C)c(O)c1 [2,5-Dimethylphenol]	100.5%	84.6%
CCC(N)C(O)c1ccc(O)c(O)c1 (stereo not shown) [Ethylnorepinephrine]	104.3%	126.8%
COc1ccc2ccc(=O)oc2c1O [Daphnetin-7-methylether]	89.9%	105.6%
CCN(CC)C(=O)c1ccc(O)c(OC)c1 [Ethamivan]	43.1%	85.5%
O=C(O)/C=C/c1ccccc1O [o-Coumaric acid]	98.6%	77.6%
Benzalkonium chloride	-0.5%	0.0294%
C=CC[C@]1(O)CC[C@H]2[C@@H]3CCC4=CCCC[C@@H]4[C@H]3CC[C@@]21C	49.4%	37.2%
CCC1(c2ccccc2)C(=O)NC(=O)NC1=O [Phenobarbital sodium]	70.8%	88.1%
COCCc1ccc(OCC(O)CNC(C)C)cc1 (stereo not shown) [Metoprolol tartrate]	78.2%	65.7%
C[C@H]1O[C@@H](O[C@H]2[C@@H](O)C[C@H](O[C@H]3[C@@H](O)C[C@H](O[C@H]4CC[C@@]5(C)[C@H](CC[C@@H]6[C@@H]5C[C@@H](O)[C@]5(C)[C@@H](C7=CC(=O)OC7)CC[C@]65O)C4)O[C@@H]3C)O[C@@H]2C)C[C@H](O)[C@@H]1O [Digoxin]	94.3%	141.9%
NC[C@@H]1O[C@H](O[C@H]2[C@@H](O)[C@H](O[C@@H]3[C@@H](O)[C@H](N)C[C@H](N)[C@H]3O[C@H]3O[C@H](CN)[C@@H](O)[C@H](O)[C@H]3N)O[C@@H]2CO)[C@H](N)[C@@H](O)[C@@H]1O.O=S(=O)(O)O [Neomycin sulfate]	100.4%	99.6%
CC(C(=O)[O-])c1cccc(Oc2ccccc2)c1.CC(C(=O)[O-])c1cccc(Oc2ccccc2)c1.[Ca+2] (stereo not shown) [Fenoprofen calcium salt]	78.3%	87.6%
O=C(O)Cc1ccccc1O [2-Hydroxyphenylacetic acid]	14.3%	7.3%
O=C(O)Cc1cccc(O)c1 [3-hydroxyphenylacetic acid]	54.1%	110.8%
O=C(O)c1ccccc1O [Salicylic acid]	78.2%	69.1%
Cc1ncc(CO)c(CO)c1O [Pyridoxine hydrochloride]	71.1%	100.9%
C[C@]12CC[C@H](O)C[C@H]1CC[C@@H]1[C@@H]2CC[C@]2(C)[C@@H](C3=CC(=O)OC3)[C@@H](O)C[C@]12O [Gitoxigenin]	81.4%	102.7%
CC(=O)Nc1ccc(O)cc1 [Acetaminophen [paracetamol]]	85.2%	63.5%
O=C1NC(=O)C(c2ccccc2)(c2ccccc2)N1 [Diphenylhydantoin [phenytoin]]	78.1%	66.3%
CCC(C)NCC(O)c1ccc2c(c1)CCCC2 (stereo not shown) [Butidrine]	89.2%	73.1%
O=c1ccc2cc(O)c(O)cc2o1 [Esculetin]	89.2%	103.6%
Cl.Cl.OCCN1CCN(CCC=C2c3ccccc3Sc3ccc(Cl)cc32)CC1 [Clopenthixol dihydrochloride]	40.1%	55.2%
Oc1ccc(/C=C/c2cc(O)cc(O)c2)cc1 [Resveratrol]	79.8%	103.4%
Cc1ccc(C(=O)NS(=O)(=O)c2ccc(N)cc2)cc1C [N-Sulfanilyl-3,4-xylamide]	100.7%	72.0%
CC(C)NCC(O)COc1cccc2ccccc12 (stereo not shown) [Propranolol hydrochloride]	105.4%	74.0%
Cn1c(=O)c2[nH]cnc2n(C)c1=O [Theophylline]	100.4%	87.8%
COc1cc(C(=O)O)cc(OC)c1O [Syringic acid]	54.4%	61.1%

Molecule	CHIKV replicon % left [1]	SFV replication % left (surviving fraction, remaining percentage of SFV replication) [2]
CCCCOC(=O)c1ccc(N)cc1 [Butyl 4-Aminobenzoate]	102.7%	76.6%
NC(=O)N/N=C/c1ccc([N+](=O)[O-])o1 [Nitrofurazone]	102.1%	83.7%
O=S(=O)(O)NC1CCCCC1 [Cyclamic acid]	107.5%	74.9%
C=CC/C(=N/OS(=O)(=O)[O-])S[C@@H]1O[C@H](CO)[C@@H](O)[C@H](O)[C@H]1O.O.[K+] [Sinigrin monohydrate]	99.2%	47.6%
CCn1cc(C(=O)O)c(=O)c2ccc(C)nc21 [Nalidixic acid]	100.4%	80.4%
COc1cc(OC)c2ccc(=O)oc2c1 [Citropten]	106.4%	67.4%
NCCN1C(=O)CN=C(c2ccccc2F)c2cc(Cl)ccc21 [Desalkylflurazepam]	74.3%	68.5%
O=c1oc2ccccc2c(O)c1Cc1c(O)c2ccccc2oc1=O [Dicumarol]	43.0%	65.6%
O=C1CC(=O)NC(=O)N1 [Barbituric acid]	88.4%	48.8%
Cc1c(C)c2c(c(C)c1OC(=O)CCC(=O)O)CC[C@@](C)(CCC[C@H](C)CCC[C@H](C)CCCC(C)C)O2 [(+)-a-Tocopherol acid succinate]	62.2%	75.3%
CC(C)NCC(O)c1ccc(NS(C)(=O)=O)cc1 (stereo not shown) [Sotalol hydrochloride]	80.1%	100.5%
CCCCNC(=O)NS(=O)(=O)c1ccc(N)cc1 [1-Butyl-3-sulfanilylurea [carbutamide]]	67.5%	83.9%
Cl.Cl.OCCN1CCN(CC/C=C2/c3ccccc3Sc3ccc(C(F)(F)F)cc32)CC1 [Cis(Z)-Flupentixol dihydrochloride]	102.7%	92.6%
C[C@@]12CCC[C@H]1[C@@H]1CC[C@H]3CCCC[C@]3(C)[C@H]1CC2 [4-a-Androstane]	85.5%	53.0%
CC(C)NCC(O)c1ccc(O)c(O)c1.CC(C)NCC(O)c1ccc(O)c(O)c1.O=S(=O)(O)O (racemic) [(+/-)-Isoproterenol hemisulfate salt]	105.1%	110.9%
C[N+]1(C)[C@@H]2CC[C@H]1C[C@@H](OC(=O)C(CO)c1ccccc1)C2 (stereo partly shown) [Atropine methyl nitrate]	61.7%	46.8%
O=C(O)c1cc(O)ccc1O [2,5-Dihydroxybenzoic acid]	83.7%	127.8%
CN(C)CC[C@@H](c1ccc(Br)cc1)c1ccccn1 [Dexbrompheniramine maleate]	100.4%	69.6%
CC(C)(C)NCC(O)c1cc(O)cc(O)c1.CC(C)(C)NCC(O)c1cc(O)cc(O)c1.O=S(=O)(O)O (stereo not shown) [Terbutaline hemisulfate salt]	87.2%	97.5%
CC1=C2[C@H]3OC(=O)[C@@H](C)[C@@H]3CC[C@@]2(C)C=CC1=O [Santonin]	101.9%	99.9%
CC(=O)NS(=O)(=O)c1ccc(NC(=O)c2ccccc2C(=O)O)cc1 [Phthalylsulfacetamide]	85.4%	110.6%
CN(C)CCC=C1c2ccccc2COc2ccccc21 [Doxepin hydrochloride]	87.2%	21.6%
CCCc1cc(=O)[nH]c(=S)[nH]1 [6-Propyl-2-thiouracil]	100.5%	81.0%
Cc1cnc(NS(=O)(=O)c2ccc(N)cc2)nc1 [Sulfaperine]	100.8%	127.8%
COc1ccc(NS(=O)(=O)c2ccc(N)cc2)nn1 [Sulfamethoxypyridazine]	82.0%	110.0%
CC(CN1c2ccccc2Sc2ccccc21)[N+](C)(C)CCO (stereo not shown) [N-Hydroxyethylpromethazine chloride]	85.9%	102.2%

From PMC3242765, “Inhibitors of Alphavirus Entry and Replication Identified with a Stable Chikungunya Replicon Cell Line and Virus-Based Assays” (PLoS ONE, 2011)
